Experiments:
Assay in all cases: Post-emergent Test III, herbicidal activity in wheat and barley
Format in all cases: in vivo
[1] = tested on: MATSS: scented mayweed (Matricaria chamomilla), pineappleweed (Matricaria matricarioides); conditions: for GR50 MATSS: dose for 50 percent growth reduction; for GR50 MATSS / GR80 MATSS: probit analysis; for GR80 MATSS: dose for 80 percent growth reduction
In short: (§1)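 GR20, GR50, GR80 and GR90 come from probit analysis of visual injury scores (0 = none, 100 = complete kill) taken 21 d after treatment. Foliar application was by track sprayer delivering 187 L/ha at five rates, from high down to 1/16×, onto greenhouse plants at the 2–3 leaf stage, with solvent-blank controls.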

[2] = tested on: SASKR: Russian thistle (Salsola iberica); conditions: for GR50 SASKR: dose for 50 percent growth reduction; for GR50 SASKR / GR80 SASKR: probit analysis; for GR80 SASKR: dose for 80 percent growth reduction
In short: as §1

[3] = tested on: HORSS: barley, including spring and winter (Hordeum vulgare); conditions: for GR20 HORSS: probit analysis
In short: as §1

[4] = tested on: VIOSS: wild pansy (Viola tricolor), field violet (Viola arvensis); conditions: for GR50 VIOSS: dose for 50 percent growth reduction; for GR50 VIOSS / GR80 VIOSS: probit analysis; for GR80 VIOSS: dose for 80 percent growth reduction
In short: as §1

[5] = tested on: TRZSS: wheat, including spring and winter (Triticum aestivum); conditions: for GR20 TRZSS: probit analysis
In short: as §1

[6] = tested on: KCHSC: kochia (Kochia scoparia); conditions: for GR50 KCHSC: dose for 50 percent growth reduction; for GR50 KCHSC / GR80 KCHSC: probit analysis; for GR80 KCHSC: dose for 80 percent growth reduction
In short: as §1

[7] = tested on: VERPE: bird's-eye speedwell (veronica persica); conditions: for GR50 VERPE: dose for 50 percent growth reduction; for GR50 VERPE / GR80 VERPE: probit analysis; for GR80 VERPE: dose for 80 percent growth reduction
In short: as §1

LAMSS = conditions: Table 8, 21 d
In short: as §1

[8] = Table 8, dose for 20 percent growth reduction, 21 d
[9] = dose for 20 percent growth reduction (crop), 21 days after application

Nc1cc(-c2ccc(Br)c(F)c2)nc(C(=O)O)c1Cl [Compound 110, 4-Amino-6-(4-bromo-3-fluorophenyl)-3-chloropicolinic acid]
pest or weed control at 35 g/ha ([1]; Matricaria chamomilla, post-emergence, 504 h, Table 8, 35 g ai/ha, post-emergent, 21 d, read-out: Visual Growth Reduction (%) 21 Days After Application MATSS): 60 to 74% | pest or weed control at 70 g/ha ([1]; Matricaria chamomilla, post-emergence, 504 h, Table 8, 70 g ai/ha, post-emergent, 21 d, read-out: Visual Growth Reduction (%) 21 Days After Application MATSS): 85 to 94% | GR50 MATSS ([1]; Table 8, 21 d): 10 g ai/ha | GR80 MATSS ([1]; Table 8, 21 d): 37 g ai/ha | pest or weed control at 35 g/ha ([2]; Salsola tragus, post-emergence, 504 h, Table 8, 35 g ai/ha, post-emergent, 21 d, read-out: Visual Growth Reduction (%) 21 Days After Application SASKR): 75 to 84% | pest or weed control at 70 g/ha ([2]; Salsola tragus, post-emergence, 504 h, Table 8, 70 g ai/ha, post-emergent, 21 d, read-out: Visual Growth Reduction (%) 21 Days After Application SASKR): 85 to 94% | GR50 SASKR ([2]; Table 8, 21 d): 1 g ai/ha | GR80 SASKR ([2]; Table 8, 21 d): 30 g ai/ha | pest or weed control at 35 g/ha ([3]; Hordeum vulgare, post-emergence, 504 h, Table 8, 35 g ai/ha, post-emergent, 21 d, read-out: Visual Growth Reduction (%) 21 Days After Application HORSS): 85 to 94% | pest or weed control at 70 g/ha ([3]; Hordeum vulgare, post-emergence, 504 h, Table 8, 70 g ai/ha, post-emergent, 21 d, read-out: Visual Growth Reduction (%) 21 Days After Application HORSS): 95 to 100% | GR20 HORSS [3, 8]: 1 g ai/ha | GR50 VIOSS ([4]; Table 8, 21 d): 51 g ai/ha | GR80 VIOSS ([4]; Table 8, 21 d): 144 g ai/ha | pest or weed control at 35 g/ha ([4]; Viola tricolor, post-emergence, 504 h, Table 8, 35 g ai/ha, post-emergent, 21 d, read-out: Visual Growth Reduction (%) 21 Days After Application VIOSS): 30 to 44% | pest or weed control at 70 g/ha ([4]; Viola tricolor, post-emergence, 504 h, Table 8, 70 g ai/ha, post-emergent, 21 d, read-out: Visual Growth Reduction (%) 21 Days After Application VIOSS): 60 to 74% | GR20 TRZSS [5, 8]: 1 g ai/ha | pest or weed control at 35 g/ha ([5]; Triticum aestivum, post-emergence, 504 h, Table 8, 35 g ai/ha, post-emergent, 21 d, read-out: Visual Growth Reduction (%) 21 Days After Application TRZSS): 85 to 94% | pest or weed control at 70 g/ha ([5]; Triticum aestivum, post-emergence, 504 h, Table 8, 70 g ai/ha, post-emergent, 21 d, read-out: Visual Growth Reduction (%) 21 Days After Application TRZSS): 85 to 94% | pest or weed control at 35 g/ha ([6]; Bassia scoparia, post-emergence, 504 h, Table 8, 35 g ai/ha, post-emergent, 21 d, read-out: Visual Growth Reduction (%) 21 Days After Application KCHSC): 95 to 100% | pest or weed control at 70 g/ha ([6]; Bassia scoparia, post-emergence, 504 h, Table 8, 70 g ai/ha, post-emergent, 21 d, read-out: Visual Growth Reduction (%) 21 Days After Application KCHSC): 95 to 100% | GR50 KCHSC ([6]; Table 8, 21 d): 1 g ai/ha | GR80 KCHSC ([6]; Table 8, 21 d): 1 g ai/ha | GR50 VERPE ([7]; Table 8, 21 d): >140 g ai/ha | GR80 VERPE ([7]; Table 8, 21 d): >140 g ai/ha | pest or weed control at 35 g/ha ([7]; Veronica persica, post-emergence, 504 h, Table 8, 35 g ai/ha, post-emergent, 21 d, read-out: Visual Growth Reduction (%) 21 Days After Application VERPE): 0 to 29% | pest or weed control at 70 g/ha ([7]; Veronica persica, post-emergence, 504 h, Table 8, 70 g ai/ha, post-emergent, 21 d, read-out: Visual Growth Reduction (%) 21 Days After Application VERPE): 0 to 29% | GR50 LAMSS (LAMSS; dose for 50 percent growth reduction, probit analysis): 1 g ai/ha | GR80 LAMSS (LAMSS; dose for 80 percent growth reduction, probit analysis): 1 g ai/ha | pest or weed control at 35 g/ha (LAMSS; post-emergence, 504 h, 35 g ai/ha, post-emergent, read-out: Visual Growth Reduction (%) 21 Days After Application LAMSS): 95 to 100% | pest or weed control at 70 g/ha (LAMSS; post-emergence, 504 h, 70 g ai/ha, post-emergent, read-out: Visual Growth Reduction (%) 21 Days After Application LAMSS): 95 to 100%

Nc1c(F)c(-c2ccc(I)cc2F)nc(C(=O)O)c1Cl [Compound 169]
pest or weed control at 37.1 g/ha ([1]; Matricaria chamomilla, post-emergence, 504 h, 37.1 g ai/ha, 21 days after application, read-out: Visual Gorowth Reduction (%) 21 days After Application MATSS): 75 to 84% | pest or weed control at 74.3 g/ha ([1]; Matricaria chamomilla, post-emergence, 504 h, 74.3 g ai/ha, 21 days after application, read-out: Visual Gorowth Reduction (%) 21 days After Application MATSS): 95 to 100% | pest or weed control at 149 g/ha ([1]; Matricaria chamomilla, post-emergence, 504 h, 149 g ai/ha, 21 days after application, read-out: Visual Gorowth Reduction (%) 21 days After Application MATSS): 95 to 100% | GR50 MATSS ([1]; 21 days after application): 15 g ai/ha | GR80 MATSS ([1]; 21 days after application): 35 g ai/ha | pest or weed control at 37.1 g/ha ([2]; Salsola tragus, post-emergence, 504 h, 37.1 g ai/ha, 21 days after application, read-out: Visual Gorowth Reduction (%) 21 days After Application SASKR): 60 to 74% | pest or weed control at 74.3 g/ha ([2]; Salsola tragus, post-emergence, 504 h, 74.3 g ai/ha, 21 days after application, read-out: Visual Gorowth Reduction (%) 21 days After Application SASKR): 75 to 84% | pest or weed control at 149 g/ha ([2]; Salsola tragus, post-emergence, 504 h, 149 g ai/ha, 21 days after application, read-out: Visual Gorowth Reduction (%) 21 days After Application SASKR): 85 to 94% | GR50 SASKR ([2]; 21 days after application): 5 g ai/ha | GR80 SASKR ([2]; 21 days after application): 83 g ai/ha | pest or weed control at 37.1 g/ha ([3]; Hordeum vulgare, post-emergence, 504 h, 37.1 g ai/ha, 21 days after application, read-out: Visual Gorowth Reduction (%) 21 days After Application HORSS): 95 to 100% | pest or weed control at 74.3 g/ha ([3]; Hordeum vulgare, post-emergence, 504 h, 74.3 g ai/ha, 21 days after application, read-out: Visual Gorowth Reduction (%) 21 days After Application HORSS): 95 to 100% | pest or weed control at 149 g/ha ([3]; Hordeum vulgare, post-emergence, 504 h, 149 g ai/ha, 21 days after application, read-out: Visual Gorowth Reduction (%) 21 days After Application HORSS): 95 to 100% | GR20 HORSS [3, 9]: 1 g ai/ha | pest or weed control at 37.1 g/ha ([4]; Viola tricolor, post-emergence, 504 h, 37.1 g ai/ha, 21 days after application, read-out: Visual Gorowth Reduction (%) 21 days After Application VIOSS): 75 to 84% | pest or weed control at 74.3 g/ha ([4]; Viola tricolor, post-emergence, 504 h, 74.3 g ai/ha, 21 days after application, read-out: Visual Gorowth Reduction (%) 21 days After Application VIOSS): 95 to 100% | pest or weed control at 149 g/ha ([4]; Viola tricolor, post-emergence, 504 h, 149 g ai/ha, 21 days after application, read-out: Visual Gorowth Reduction (%) 21 days After Application VIOSS): 95 to 100% | GR50 VIOSS ([4]; 21 days after application): 21 g ai/ha | GR80 VIOSS ([4]; 21 days after application): 36 g ai/ha | pest or weed control at 37.1 g/ha ([5]; Triticum aestivum, post-emergence, 504 h, 37.1 g ai/ha, 21 days after application, read-out: Visual Gorowth Reduction (%) 21 days After Application TRZSS): 75 to 84% | pest or weed control at 74.3 g/ha ([5]; Triticum aestivum, post-emergence, 504 h, 74.3 g ai/ha, 21 days after application, read-out: Visual Gorowth Reduction (%) 21 days After Application TRZSS): 85 to 94% | pest or weed control at 149 g/ha ([5]; Triticum aestivum, post-emergence, 504 h, 149 g ai/ha, 21 days after application, read-out: Visual Gorowth Reduction (%) 21 days After Application TRZSS): 85 to 94% | GR20 TRZSS [5, 9]: 1 g ai/ha | pest or weed control at 37.1 g/ha ([6]; Bassia scoparia, post-emergence, 504 h, 37.1 g ai/ha, 21 days after application, read-out: Visual Gorowth Reduction (%) 21 days After Application KCHSC): 60 to 74% | pest or weed control at 74.3 g/ha ([6]; Bassia scoparia, post-emergence, 504 h, 74.3 g ai/ha, 21 days after application, read-out: Visual Gorowth Reduction (%) 21 days After Application KCHSC): 85 to 94% | pest or weed control at 149 g/ha ([6]; Bassia scoparia, post-emergence, 504 h, 149 g ai/ha, 21 days after application, read-out: Visual Gorowth Reduction (%) 21 days After Application KCHSC): 85 to 94% | GR50 KCHSC ([6]; 21 days after application): 8 g ai/ha | GR80 KCHSC ([6]; 21 days after application): 72 g ai/ha | pest or weed control at 37.1 g/ha ([7]; Veronica persica, post-emergence, 504 h, 37.1 g ai/ha, 21 days after application, read-out: Visual Gorowth Reduction (%) 21 days After Application VERPE): 85 to 94% | pest or weed control at 74.3 g/ha ([7]; Veronica persica, post-emergence, 504 h, 74.3 g ai/ha, 21 days after application, read-out: Visual Gorowth Reduction (%) 21 days After Application VERPE): 95 to 100% | pest or weed control at 149 g/ha ([7]; Veronica persica, post-emergence, 504 h, 149 g ai/ha, 21 days after application, read-out: Visual Gorowth Reduction (%) 21 days After Application VERPE): 95 to 100% | GR50 VERPE ([7]; 21 days after application): 19 g ai/ha | GR80 VERPE ([7]; 21 days after application): 37 g ai/ha

Reference: patent US9113629B2, “4-amino-6-(4-substituted-phenyl)-picolinates and 6-amino-2-(4-substituted-phenyl)-pyrimidine-4-carboxylates and their use as herbicides” (DOW AGROSCIENCES LLC, priority 2013, dated 2015)
